Earlier results in PMC7673724 (Science Advances, 2020).

Test system: Rubisco
Details: control used to normalize array signal (one unit of binding)

TRSVLPANWRQELESLRN [control EPYC1 peptide]
Binding to Rubisco of the positive control peptide: known to bind to Rubisco
